Test results taken from US9637451B2, “Indole compound” (ASTELLAS PHARMA INC., priority 2014, dated 2017).

Assay: CSF-to-plasma unbound concentration ratio in rat after intravenous administration
Type: in vivo
Conditions: CSF and plasma (unbound), iv, 15 minutes after intravenous administration, fp by ultracentrifugation method
Procedure: A test compound (100 μg/mL, 50% acetonitrile solution) at 1% (v/v) with respect to the amount of the plasma was added to rat plasma, and dispensed to a sample for a supernatant and a sample for the plasma. The sample for a supernatant was ultracentrifuged at 436,000×g and 37° C. for 140 minutes, and the sample for the plasma was incubated at 37° C. for 140 minutes.
After 140 minutes, the sample for a supernatant after the ultracentrifugation and the sample for the plasma were taken, and mixed with the blank plasma or the blank supernatant, respectively. Acetonitrile including an internal standard material was added to each of the samples with the removal of protein, and after the centrifugation at 2150×g and 4° C. for 10 minutes the supernatant was injected into LC-MS/MS.
The unbound fraction in the plasma was calculated by the following equation.
To the plasma of a rat was added a test compound (0.2 mM, 50% acetonitrile solution) in an amount corresponding to 1% (v/v) of the plasma amount, and 200 μL of obtained plasma sample was filled into a plasma chamber of a RED device insert. A buffer chamber was filled with 350 μL of PBS, followed by performing equilibrium dialysis by stirring in a CO2 incubator at 37° C. for 16 hours. The sample after the completion of the equilibrium dialysis was recovered and the volume of the plasma sample was measured. To the plasma sample after the completion of the equilibrium dialysis were added PBS, a 20 mM ammonium formate buffer, and acetonitrile including an internal standard material. Similarly, to the PBS sample after the completion of the equilibrium dialysis was added a blank plasma, a 20 mM ammonium formate buffer, and acetonitrile including an internal standard material. This sample was left to stand at 4° C. for 30 minutes and then centrifuged 1500×g for 10 minutes, and the supernatant was measured by LC-MS/MS. The unbound fraction in the plasma was calculated by the following equation. fp=Cf/{(Cp−Cf)(V/V0)+Cf}
At 15 minutes after intravenously administration of the test compound to the rats, the plasma and CSF were collected. A 50% acetonitrile solution and an acetonitrile including internal standard material were added to the collected plasma or CSF. After centrifuging this sample at 4° C. and 2150×g for 10 minutes, the supernatant was measured by LC-MS/MS, and the total concentration of the test compound in the plasma (Cplasma,t) and the concentration of the test compound in CSF (CCSF) were obtained. The unbound concentration in the plasma (Cplasma,u) of the test compound and the CSF-to-plasma unbound concentration ratio (Kp,uu,CSF) of the test compound was calculated by the following equation.
The Kp,uu,CSF values and the Kp,brain values of ramelteon and some Example compounds of the present invention are shown in Table 4. Ex represents Example No. of the test compound. Unless otherwise specified, the Kp,uu,CSF was calculated using the fp values determined by an ultracentrifugation method. Further, N.T. represents Not Tested.
(Ramelteon represents the values of Kp,uu,CSF after 10 minutes after the intravenous administration. Further, the Kp,uu,CSF of Examples 37 and 38 was calculated using the fp values determined by an equilibrium dialysis method. In addition, N.D. denotes the concentration of the test compound in CSF that is no higher than the detection limit.)

Kp uu at 0.25 h: 0.06
SMILES: CC(=O)NCCc1c[nH]c2cc(F)c(OCCOc3ccn(C)n3)cc12 [Example 6, N-[2-(6-fluoro-5-{2-[(1-methyl-1H-pyrazol-3-yl)oxy]ethoxy}-1H-indol-3-yl)ethyl]acetamide]
